# From ChEMBL document CHEMBL1126639, “Centrally acting serotonergic and dopaminergic agents. 2. Synthesis and structure-activity relationships of 2,3,3a,4,9,9a-hexahydro-1H-benz[f]indole derivatives” (J Med Chem, 1993)
# Columns and labels:
# Mus musculus [1] = experiment: Time of effect in the face-to-face behavioral assay in the mouse when a dose of 36 micro mol/kg is administered perorally; format: functional
# Mus musculus [2] = experiment: Time of effect in the isolation-induced aggression behavioral assay in the mouse when a dose of 3.6 micro mol/kg is administered perorally; format: functional
# Mus musculus [3] = experiment: Time of effect in the face-to-face behavioral assay in the mouse when a dose of 0.0 micro mol/kg is administered perorally; format: functional
# Mus musculus [4] = experiment: Time of effect in the isolation-induced aggression behavioral assay in the mouse when a dose of 11 micro mol/kg is administered intraperitoneally; format: functional
# Mus musculus [5] = experiment: Time of effect in the isolation-induced aggression behavioral assay in the mouse when a dose of 36 micro mol/kg is administered intraperitoneally; format: functional
# D(2) dopamine receptor = D(2) dopamine receptor (Rattus norvegicus, UniProt P61169); experiment: Binding affinity for [3H]raclopride-labeled dopamine receptor D2 in rat striatum; format: tissue-based
# Rattus norvegicus [6] = experiment: Inhibition of firing rates of serotonergic neurons in the dorsal raphe nucleus by intravenous injection in rats; format: functional; conditions: Rattus norvegicus, Dorsal raphe nucleus, iv; read-out: ED50
# Mus musculus [7] = experiment: Time of effect in the isolation-induced aggression behavioral assay in the mouse when a dose of 11 micro mol/kg is administered perorally; format: functional
# Rattus norvegicus [8] = experiment: Effect on the synthesis rates of dopamine (DOPA accumulation) in the rat ventral limbic brain region at 10.7 uM/kg.; format: functional, Limbic system
# Rattus norvegicus [9] = experiment: Effect on the synthesis rates of serotonin (5-HTP accumulation) in the rat ventral limbic brain region 10.7 umol/kg.; format: functional, Limbic system
# Mus musculus [10] = experiment: Time of effect in the isolation-induced aggression behavioral assay in the mouse when a dose of 36 micro mol/kg is administered perorally; format: functional
# Mus musculus [11] = experiment: Time of effect in the isolation-induced aggression behavioral assay in the mouse when a dose of 0.0 micro mol/kg is administered intraperitoneally; format: functional
# Rattus norvegicus [12] = experiment: Inhibition of firing rates of dopaminergic neurons in the substantia nigra pars compacta by intravenous injection in rats; format: functional
# Mus musculus [13] = experiment: Time of effect in the face-to-face behavioral assay in the mouse when a dose of 11 micro mol/kg is administered perorally; format: functional
# Rattus norvegicus [14] = experiment: Effect on the synthesis rates of serotonin in the rat ventral limbic brain region 10.7 micro mol/kg.; format: functional, Limbic system
# Felis catus [15] = experiment: Maximum decrease of arterial blood pressure at sympathetic nerve activity (SND) in anesthetized cat has been observed following 1 mg/kg dose; format: functional; design: scale not given: the % may be the effect or the level left
# Mus musculus [16] = experiment: Time of effect in the face-to-face behavioral assay in the mouse when a dose of 3.6 micro mol/kg is administered subcutaneously; format: functional
# Mus musculus [17] = experiment: Maximum decrease in temperature when compound is administered subcutaneously; format: functional
# Mus musculus [18] = experiment: Time of effect in the isolation-induced aggression behavioral assay in the mouse when a dose of 3.6 micro mol/kg is administered intraperitoneally (*,p<0.05); format: functional
# Mus musculus [19] = species: Mus musculus; experiment: Time of effect in the face-to-face behavioral assay in the mouse […]; format: functional
# Rattus norvegicus [20] = experiment: Effect on the synthesis rates of dopamine (DOPA accumulation) in the rat ventral limbic brain region at 10.7 micro mol/kg.; format: functional, Limbic system
# Mus musculus [21] = experiment: Time of effect in the isolation-induced aggression behavioral assay in the mouse when a dose of 0.4 micro mol/kg is administered intraperitoneally; format: functional
# Mus musculus [22] = experiment: Effective dose on hypothermia in mouse when administered through peroral route; format: functional
# Mus musculus [23] = experiment: Time of effect in the face-to-face behavioral assay in the mouse when a dose of 0.4 micro mol/kg is administered subcutaneously; format: functional
# Mus musculus [24] = experiment: Effective dose on hypothermia in mouse when administered subcutaneously; format: functional
# Felis catus [25] = experiment: Maximum decrease of sympathetic nerve activity (SND) in anesthetized cat; format: functional; design: scale not given: the % may be the effect or the level left
# Mus musculus [26] = experiment: Time of effect in the isolation-induced aggression behavioral assay in the mouse when a dose of 0.0 micro mol/kg is administered perorally; format: functional
# Mus musculus [27] = experiment: Time of effect in the face-to-face behavioral assay in the mouse when a dose of 36 micro mol/kg is administered subcutaneously; format: functional
# Mus musculus [28] = experiment: Maximum decrease in temperature when compound is administered through peroral route; format: functional
# Mus musculus [29] = experiment: Time of effect in the isolation-induced aggression behavioral assay in the mouse when a dose of 36 micro mol/kg is administered intraperitoneally (*,p<0.05); format: functional
# Mus musculus [30] = experiment: Ability to stimulate dopaminergic systems by effect on locomotor activity in reserpinized mice when a dose of 32 micro mol/kg is administered intraperitoneally; format: functional
# Mus musculus [31] = experiment: Antagonism of apomorphine in reserpinized mice when a dose of 0.03 micro mol/kg is administered intraperitoneally; format: functional
# Mus musculus [32] = experiment: Ability to stimulate dopaminergic systems by effect on locomotor activity in reserpinized mice when a dose of 0.3 micro mol/kg is administered intraperitoneally; format: functional
# Mus musculus [33] = experiment: Ability to stimulate dopaminergic systems by effect on locomotor activity in reserpinized mice when a dose of 0.03 micro mol/kg is administered intraperitoneally; format: functional
# Rattus norvegicus [34] = experiment: Effect on the synthesis rates of serotonin in the rat ventral limbic brain region 3.2 micro mol/kg. Values are given as percent change from the control; format: functional, Limbic system
# Rattus norvegicus [35] = experiment: Effect on the synthesis rates of dopamine in the rat ventral limbic brain region at 3.2 micro mol/kg; format: functional, Limbic system
# Rattus norvegicus [36] = experiment: Inhibition of firing rates of dopaminergic neurons in the substantia nigra pars compacta by intravenous injection in rats.; format: functional
# Mus musculus [37] = experiment: Antagonism of apomorphine for 10-20 minutes in reserpinized mice when a dose of 0.3 micro mol/kg is administered intraperitoneally; format: functional
# Mus musculus [38] = experiment: Ability to stimulate dopaminergic systems by effect on locomotor activity in reserpinized mice when a dose of 3.2 micro mol/kg is administered intraperitoneally; format: functional
# Mus musculus [39] = experiment: Antagonism of apomorphine in reserpinized mice when a dose of 0.3 micro mol/kg is administered intraperitoneally; format: functional
# Mus musculus [40] = experiment: Antagonism of apomorphine for 10-20 minutes in reserpinized mice when a dose of 3.2 micro mol/kg is administered intraperitoneally; format: functional
# Mus musculus [41] = experiment: Antagonism of apomorphine for 0-10 minutes in reserpinized mice when a dose of 0.03 micro mol/kg is administered intraperitoneally; format: functional
# Mus musculus [42] = experiment: Antagonism of apomorphine for 10-20 minutes in reserpinized mice when a dose of 32 micro mol/kg is administered intraperitoneally; format: functional
# Mus musculus [43] = experiment: Antagonism of apomorphine for 0-10 minutes in reserpinized mice when a dose of 0.3 micro mol/kg is administered intraperitoneally; format: functional
# Mus musculus [44] = experiment: Antagonism of apomorphine for 0-10 minutes in reserpinized mice when a dose of 3.2 micro mol/kg is administered intraperitoneally; format: functional
# Mus musculus [45] = experiment: Antagonism of apomorphine in reserpinized mice when a dose of 3.2 micro mol/kg is administered intraperitoneally; format: functional
# Mus musculus [46] = experiment: Antagonism of apomorphine in reserpinized mice when a dose of 32 micro mol/kg is administered intraperitoneally; format: functional
# Mus musculus [47] = experiment: Antagonism of apomorphine for 0-10 minutes in reserpinized mice when a dose of 32 micro mol/kg is administered intraperitoneally; format: functional
# Mus musculus [48] = experiment: Antagonism of apomorphine for 10-20 minutes in reserpinized mice when a dose of 0.03 micro mol/kg is administered intraperitoneally; format: functional
# Sequence of D(2) dopamine receptor (P61169 whole entry): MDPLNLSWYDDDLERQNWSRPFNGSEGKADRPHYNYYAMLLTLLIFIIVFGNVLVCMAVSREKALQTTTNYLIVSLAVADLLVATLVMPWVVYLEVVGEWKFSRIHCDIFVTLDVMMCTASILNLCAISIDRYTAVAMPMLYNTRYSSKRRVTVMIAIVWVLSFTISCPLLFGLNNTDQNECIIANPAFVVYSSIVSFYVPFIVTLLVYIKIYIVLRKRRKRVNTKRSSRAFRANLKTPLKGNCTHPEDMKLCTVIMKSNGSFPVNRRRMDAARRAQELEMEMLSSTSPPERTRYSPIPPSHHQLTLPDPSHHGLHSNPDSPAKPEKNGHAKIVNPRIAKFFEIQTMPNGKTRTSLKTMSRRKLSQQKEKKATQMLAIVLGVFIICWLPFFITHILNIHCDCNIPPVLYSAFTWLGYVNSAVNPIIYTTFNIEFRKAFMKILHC
structure (smiles),measurement,setting,value
C=CCN1CC[C@H]2Cc3c(cccc3OC)C[C@@H]21,Time,Mus musculus [1],0.9 s
same,Time,Mus musculus [2],36 s
same,Time,Mus musculus [3],0.3 s
same,Time,Mus musculus [4],46 s
same,Time,Mus musculus [5],83 s
same,Ki,D(2) dopamine receptor,> 1000 nM
same,ED50,Rattus norvegicus [6],3.97 µmol/kg
same,Time,Mus musculus [7],63 s
same,Control,Rattus norvegicus [8],29%
same,Control,Rattus norvegicus [9],4%
same,Time,Mus musculus [10],219 s
same,Time,Mus musculus [11],5 s
same,ED50,Rattus norvegicus [12],4.75 µmol/kg
same,Time,Mus musculus [13],0.7 s
C=CCN1CC[C@@H]2Cc3c(cccc3OC)C[C@H]21 (racemic),Control,Rattus norvegicus [14],-39
same,Time,Mus musculus [2],88 s
same,Control,Felis catus [15],63%
same,Time,Mus musculus [16],3.6 s
same,Max temperature decrease,Mus musculus [17],7.8
same,Time,Mus musculus [18],147 s
same,Ki,D(2) dopamine receptor,> 1000 nM
same,Time,Mus musculus [19],0.9 s
same,Control,Rattus norvegicus [20],-26
same,ED50,Rattus norvegicus [6],0.14 µmol/kg
same,Time,Mus musculus [7],218 s
same,Time,Mus musculus [21],3 s
same,ED50,Mus musculus [22],4.6 µM/kg
same,Time,Mus musculus [23],1.5 s
same,ED50,Mus musculus [24],2.6 µM/kg
same,Time,Mus musculus [10],393 s
same,Control,Felis catus [25],78%
same,Time,Mus musculus [26],73 s
same,Time,Mus musculus [27],6.9 s
same,Time,Mus musculus [11],3 s
same,Max temperature decrease,Mus musculus [28],9.9
same,Time,Mus musculus [29],522 s
CN1CCc2cccc3c2[C@H]1Cc1ccc(O)c(O)c1-3 [APOMORPHINE],Locomotor activity,Mus musculus [30],1184
same,Locomotor activity,Mus musculus [31],119
same,Locomotor activity,Mus musculus [32],150
same,Locomotor activity,Mus musculus [33],22
same,Control,Rattus norvegicus [34],17%
same,Control,Rattus norvegicus [35],-55%
same,ED50,Rattus norvegicus [36],0.031 µmol/kg
same,Locomotor activity,Mus musculus [37],96
same,Locomotor activity,Mus musculus [38],1777
same,Locomotor activity,Mus musculus [39],135
same,Locomotor activity,Mus musculus [40],42
same,Locomotor activity,Mus musculus [41],78
same,Locomotor activity,Mus musculus [42],66
same,Locomotor activity,Mus musculus [43],73
same,Locomotor activity,Mus musculus [44],52
same,Locomotor activity,Mus musculus [45],139
same,Locomotor activity,Mus musculus [46],113
same,Locomotor activity,Mus musculus [47],69
same,Locomotor activity,Mus musculus [48],86
